The text below walks through data of patent US20230150924A1, “NOVEL COMPOUND HAVING CANCER METASTASIS INHIBITORY ACTIVITY, PREPARATION METHOD THEREFOR, AND PHARMACEUTICAL COMPOSITION FOR INHIBITING CANCER METASTASIS AND INVASION OR TREATING COLORECTAL CANCER, COMPRISING COMPOUND” (CELLGENTEK CO., LTD., priority 2019, published 2023).

The test system of one test is KAI1 promoter. Description: KAI1 promoter luciferase reporter assay in transfected Caco2 cells. Format: cell-based, human. Particulars: Homo sapiens, Caco-2, 16 h, read-out: Relative KAI promoter activity. On the procedure: Experiments were conducted to evaluate the metastasis-related promoter activity-increasing effects of the compounds according to the present invention. Specifically, the KAI1 promoter reporter vector was used. In this case, the pRL-TK vector, a vector expressing renilla luciferase, was used as an internal control indicating the transfection efficiency in each transfected well.
First, 24 hours before transfection, 2×10^6 human colon cancer cell line, Caco2) cells were cultured in 10 ml of DMEM containing 10% FBS and 1% penicillin/streptomycin on a 100-mm-diameter plate, and then transformed with 5 μg of a pRL-TK vector mixture containing a transfection reagent and the KAI1 promoter, and then cultured in a 5% CO2 incubator at 37° C. for 48 hours. Thereafter, the adherent cells were detached using trypsin and counted using a hemacytometer, and then 5×10^3 transfected Caco2 cells in 100 μl of DMEM containing 10% FBS and 1% penicillin/streptomycin were seeded into each well of a 96-well plate and cultured in a 5% CO2 incubator at 37° C. for 24 hours. Next, 1 μM of each of the 305 compounds prepared in Examples 1 to 305 was added to each well, and after 16 hours, 100 μl of a lysis buffer for analysis containing a luciferase substrate was added, and the cells were lysed with stirring for 20 minutes. After completion of lysis, the cells were measured for luciferase activity using a luciferase reporter assay system (Promega, USA). […] In addition, data were analyzed at a significance level of p<0.05 by one-way ANOVA (Tukey's HSD), and SPSS 17.0 (Chicago, USA) statistical program was used. In Table 14 to 20, PHA is the PHA-665752, and KIT is KITENIN.
(A reporter such as luciferase makes a cellular process visible.)

The test system of test [1] is invasion of colorectal cancer cells. Description: In vivo relative invation (invasion; EV and KITENIN controls, no method described). Particulars: relative to EV (=1); KIT = KITENIN.
Setting [2] is: 1 μM compound, 16 hours, transfected Caco2 cells, luciferase activity relative to DMSO control (=1).

Like-named read-outs stand apart in the source and are kept apart here.

Consider `CCCCN(CC)Cc1ccc(C(=O)NCC(=O)c2ccccc2)cc1` [Example 273, 4-((butyl(ethyl)amino)methyl)-N-(2-oxo-2-phenylethyl)benzamide], for which the fold induction at 1 µM in the test on KAI1 promoter (setting [2]) was 1.2. Also, the “In vivo relative invation” value in test [1] turned out to be 1.171.
For `O=C(CNS(=O)(=O)c1ccc(F)cc1)c1ccccc1` [Example 26, 4-fluoro-N-(2-oxo-2-phenylethyl)benzenesulfonamide] the same measures were 1.26 and 1.063.
Taken in the same sequence, the figures for `COc1cc(OC)cc(C(=O)NCC(=O)c2ccc(N(C)C)cc2)c1` [Example 121, N-(2-(4-(dimethylamino)phenyl)-2-oxoethyl)-3,5imethoxybenzamide] were 0.96 and 1.203.
Taken in the same sequence, the figures for `CN(C)c1ccc(C(=O)CNC(=O)c2ccco2)cc1` [Example 92, N-(2-(4-(dimethylamino)phenyl)-2-oxoethyl)furan-2-carboxamide] were 2.29 and 1.064.
As for `C=CCN(CC=C)Cc1ccccc1C(=O)NCC(=O)c1ccccc1` [Example 303, 2-((diallylamino)methyl)-N-(2-oxo-2-phenylethyl)benzamide], the fold induction at 1 µM in the test with KAI1 promoter (setting [2]) was determined as 1.85. In addition, in test [1], the “In vivo relative invation” value came out at 1.138.
For `CN(C)c1ccc(C(=O)CNC(=O)c2ccc(OC(F)(F)F)cc2)cc1` [Example 119, N-(2-(4-(dimethylamino)phenyl)-2-oxoethyl)-4-(trifluoromethoxy)benzamide], in the test on KAI1 promoter (setting [2]), the fold induction at 1 µM came out at 1.35. Besides, the “In vivo relative invation” value in test [1] was 1.203.
Taken in the same sequence, the figures for `O=C(COc1ccccc1C(=O)NCC(=O)c1ccccc1)Nc1ccccc1Cl` [Example 224, 2-(2-((2-chlorophenyl)amino)-2-oxoethoxy)-N-(2-oxo-2-phenylethyl)benzamide] were 1.13 and 1.25.
Taken in the same sequence, the figures for `O=C(CNC(=O)c1ccccc1OC(F)(F)F)c1ccc(Cl)cc1` [Example 84, N-(2-(4-chlorophenyl)-2-oxoethyl)-2-(trifluoromethoxy)benzamide] were 0.94 and 1.181.
Taken in the same sequence, the figures for `CN(Cc1ccc(C(=O)NCC(=O)c2ccccc2)cc1)c1ccccc1` [Example 262, 4-((methyl (phenyl)amino)methyl)-N-(2-oxo-2-phenylethyl)benzamide] were 1.54 and 1.09.
For `CCCCC(=O)NCC(=O)c1ccc(N2CCOCC2)cc1` [Example 145, N-(2-(4-morpholinophenyl)-2-oxoethyl)pentanamide], the fold induction at 1 µM in the test with KAI1 promoter (setting [2]) came to 1.1. For the same compound, the “In vivo relative invation” value in test [1] was found to be 1.433.
On to `O=C(CNC(=O)c1ccco1)c1ccc(Cl)cc1` [Example 46, N-(2-(4-chlorophenyl)-2-oxoethyl)furan-2-carboxamide], for which, in the test on KAI1 promoter (setting [2]), the fold induction at 1 µM was 0.98. Also, in test [1], the “In vivo relative invation” value is listed as 1.181.
Take `O=C(CNC(=O)c1cccc(Cl)c1Cl)c1ccc(Cl)cc1` [Example 80, 2,3-dichloro-N-(2-(4-chlorophenyl)-2-oxoethyl)benzamide]: the fold induction at 1 µM in the test with KAI1 promoter (setting [2]) is 0.86. Also, the “In vivo relative invation” value in test [1] turned out to be 1.183.
For `O=C(COc1ccccc1C(=O)NCC(=O)c1ccccc1)NCc1cccc(F)c1` [Example 205, 2-(2-((fluorobenzyl)amino)-2-oxoethoxy)-N-(2-oxo-2-phenylethyl)benzamide], the fold induction at 1 µM with KAI1 promoter (setting [2]) amounted to 1.1. Also, the “In vivo relative invation” value in test [1] amounted to 1.166.
As for `O=C(CNC(=O)C1CC1)c1ccccc1` [Example 16, N-(2-oxo-2-phenylethyl)cyclopropanecarboxamide], the fold induction at 1 µM in the test on KAI1 promoter (setting [2]) was 0.92. Moreover, the “In vivo relative invation” value in test [1] is given as 0.9645.
In the case of `O=C(CNC(=O)c1ccccc1OC1CCN(C(=O)C2CC2)CC1)c1ccccc1` [Example 166, 2-((1-(cyclopropanecarbonyl)piperidin-4-yl)oxy)-N-(2-oxo-2-phenylethyl)benzamide], the fold induction at 1 µM in the test with KAI1 promoter (setting [2]) worked out at 1.01. The “In vivo relative invation” value in test [1] was 1.094.
For `COc1ccc(S(=O)(=O)NCC(=O)c2ccc(Cl)cc2)cc1` [Example 71, N-(2-(4-chlorophenyl)-2-oxoethyl)-4-methoxybenzenesulfonamide], the fold induction at 1 µM in the test with KAI1 promoter (setting [2]) was determined as 0.85. Further, the “In vivo relative invation” value in test [1] is given as 1.135.
Turning to `O=C(CNC(=O)c1cccc(CN2CCN(c3ccc([N+](=O)[O-])cc3)CC2)c1)c1ccccc1` [Example 238, 3-((4-(4-nitrophenyl)piperazin-1-yl)methyl)-N-(2-oxo-2-phenylethyl)benzamide], in the test on KAI1 promoter (setting [2]), the fold induction at 1 µM was 1.6. For the same compound, in test [1], the “In vivo relative invation” value was 1.12.
For `O=C(CNC(=O)c1ccc(CN2CCN(c3ccccc3F)CC2)cc1)c1ccccc1` [Example 257, 4-((4-(2-fluorophenyl)piperazin-1-yl)methyl)-N-(2-oxo-2-phenylethyl)benzamide] the same measures were 1.36 and 1.338.
For `COc1cccc(C(=O)CNC(=O)c2cccs2)c1` [Example 127, N-(2-(3-methoxyphenyl)-2-oxoethyl)thiophene-2-carboxamide] the same measures were 2.46 and 1.351.
Take `O=C(CNC(=O)c1cccc(CN2CCc3ccccc3C2)c1)c1ccccc1` [Example 232, 3-((3,4-dihydroisoquinolin-2 (1H)-yl)methyl)-N-(2-oxo-2-phenylethyl)benzamide]: the fold induction at 1 µM in the test on KAI1 promoter (setting [2]) amounted to 1.23. In addition, the “In vivo relative invation” value in test [1] stood at 1.125.
`O=C(CNC(=O)c1ccccc1OC1CCN(C(=O)c2ccccc2F)CC1)c1ccccc1` [Example 153, 2-((1-(2-fluorobenzoyl)piperidin-4-yl)oxy)-N-(2-oxo-2-phenylethyl)benzamide]: the fold induction at 1 µM with KAI1 promoter (setting [2]) came to 1.05. For the same compound, the “In vivo relative invation” value in test [1] turned out to be 1.095.
For `O=C(CNC(=O)c1ccc(CN2CCOCC2)cc1)c1ccccc1` [Example 276, 4-(morpholinomethyl)-N-(2-oxo-2-phenylethyl)benzamide] the same measures were 3.39 and 1.224.
Taken in the same sequence, the figures for `C/C=C/C(=O)NCC(=O)c1ccc(N2CCOCC2)cc1` [Example 139, (E)-N-(2-(4-morpholinophenyl)-2-oxoethyl)but-2-enamide] were 1.01 and 1.314.
Taken in the same sequence, the figures for `CC(=O)Oc1ccccc1C(=O)N1CCC(Oc2ccccc2C(=O)NCC(=O)c2ccccc2)CC1` [Example 176, 2-(4-(2-((2-oxo-2-phenylethyl)carbamoyl)phenoxy)piperidine-1-carbonyl)phenylacetate] were 1.08 and 1.26.
Regarding `O=C(CNC(=O)c1ccc(F)cc1)c1ccccc1` [Example 4, 4-fluoro-N-(2-oxo-2-phenylethyl)benzamide], in the test with KAI1 promoter, the fold induction at 1 µM turned out to be 1.88. The “In vivo relative invation” value in test [1] was determined as 1.084.
On to `O=C(CNC(=O)c1ccc(CN2CCN(c3ccc([N+](=O)[O-])cc3)CC2)cc1)c1ccccc1` [Example 261, 4-((4-(4-nitrophenyl)piperazin-1-yl)methyl)-N-(2-oxo-2-phenylethyl)benzamide], for which, in the test on KAI1 promoter (setting [2]), the fold induction at 1 µM was determined as 1.25. Moreover, the “In vivo relative invation” value in test [1] came out at 1.197.
Consider `O=C(CNC(=O)c1ccccc1OC1CCN(C(=O)c2cccc(OC(F)(F)F)c2)CC1)c1ccccc1` [Example 200, N-(2-oxo-2-phenylethyl)-2-((1-(3-(trifluoromethoxy)benzoyl)piperidin-4-yl)oxy)benzamide], for which the fold induction at 1 µM with KAI1 promoter (setting [2]) was 1.01. In test [1], the “In vivo relative invation” value came out at 1.074.
With `COc1ccc(C(=O)NCC(=O)c2ccc(Cl)cc2)cc1` [Example 52, N-(2-(4-chlorophenyl)-2-oxoethyl)-4-methoxybenzamide], the fold induction at 1 µM in the test on KAI1 promoter (setting [2]) turned out to be 1.36. In addition, in test [1], the “In vivo relative invation” value is reported as 1.158.
Regarding `O=C(COc1ccccc1C(=O)NCC(=O)c1ccccc1)Nc1ccc(F)c([N+](=O)[O-])c1` [Example 211], the fold induction at 1 µM with KAI1 promoter (setting [2]) was 1.44. In addition, the “In vivo relative invation” value in test [1] was determined as 0.8699.
Taken in the same sequence, the figures for `O=C(COc1ccccc1C(=O)NCC(=O)c1ccccc1)Nc1ccc2c(c1)OCO2` [Example 217, 2-(2-(benzo [d] [1,3]dioxol-5-ylamino)-2-oxoethoxy)-N-(2-oxo-2-phenylethyl)benzamide] were 1.18 and 1.266.
Taken in the same sequence, the figures for `CN(C)c1ccc(C(=O)CNC(=O)C2CC2)cc1` [Example 100, N-(2-(4-(dimethylamino)phenyl)-2-oxoethyl)cyclopropanecarboxamide] were 1.62 and 1.094.
For the compound `CN(Cc1ccccc1C(=O)NCC(=O)c1ccccc1)C1CCCCC1` [Example 298, 2-((cyclohexyl(methyl)amino)methyl)-N-(2-oxo-2-phenylethyl)benzamide], the fold induction at 1 µM with KAI1 promoter (setting [2]) was 1.34. For the same compound, in test [1], the “In vivo relative invation” value is recorded as 1.213.
